Assay results published in article PMC9604400, “Synthesis, Anticancer and Antitubercular Properties of New Chalcones and Their Nitrogen-Containing Five-Membered Heterocyclic Hybrids Bearing Sulfonamide Moiety” (International Journal of Molecular Sciences, 2022).

Assays:
[1] = test system: NCI-H460; assay: NCI-60 screen (SRB), non-small cell lung cancer; details: for IC50 / CC50: Homo sapiens; for IC50: NCI-H460; for CC50: NCI-H460, read-out: LC50
[2] = test system: HOP-92; assay: NCI-60 screen (SRB), non-small cell lung cancer; details: Homo sapiens; for IC50: HOP-92; for CC50: HOP-92, read-out: LC50
[3] = test system: HL-60(TB); assay: cells; details: Homo sapiens; for IC50: HL-60; for CC50: HL-60, read-out: LC50
[4] = test system: NCI-H522; assay: NCI-60 screen (SRB), non-small cell lung cancer; details: Homo sapiens; for IC50: NCI-H522; for CC50: NCI-H522, read-out: LC50
[5] = test system: BT-549; assay: NCI-60 screen (SRB), breast cancer; details: Homo sapiens; for IC50: BT-549; for CC50: BT-549, read-out: LC50
[6] = test system: MDA-MB-468; assay: NCI-60 screen (SRB), breast cancer; details: for IC50 / CC50: Homo sapiens; for IC50: MDA-MB-468; for CC50: MDA-MB-468, read-out: LC50
[7] = test system: NCI-H226; assay: NCI-60 screen (SRB), non-small cell lung cancer; details: Homo sapiens; for IC50: NCI-H226; for CC50: NCI-H226, read-out: LC50
[8] = test system: HCT-15; assay: NCI-60 screen (SRB), colon cancer; details: Homo sapiens; for IC50: HCT-15; for CC50: HCT-15, read-out: LC50
[9] = test system: MCF7; assay: NCI-60 screen (SRB), breast cancer; details: Homo sapiens; for IC50: MCF7; for CC50: MCF7, read-out: LC50
[10] = test system: MDA-MB-435; assay: NCI-60 screen (SRB), melanoma; details: Homo sapiens; for IC50: MDA-MB-435; for CC50: MDA-MB-435, read-out: LC50
[11] = test system: SK-MEL-5; assay: NCI-60 screen (SRB), melanoma; details: Homo sapiens; for IC50: SK-MEL-5; for CC50: SK-MEL-5, read-out: LC50
[12] = test system: MALME-3M; assay: NCI-60 screen (SRB), melanoma; details: Homo sapiens; for CC50: read-out: LC50
[13] = test system: SW-620; assay: NCI-60 screen (SRB), colon cancer; details: Homo sapiens; for IC50: SW-620; for CC50: SW-620, read-out: LC50
[14] = test system: SF-295; assay: NCI-60 screen (SRB), CNS cancer; details: Homo sapiens; for IC50: SF-295; for CC50: SF-295, read-out: LC50
[15] = test system: COLO 205; assay: NCI-60 screen (SRB), colon cancer; details: for IC50 / CC50: Homo sapiens; for IC50: COLO 205; for CC50: COLO 205, read-out: LC50
[16] = test system: M14; assay: NCI-60 screen (SRB), melanoma; details: Homo sapiens; for IC50: M14; for CC50: M14, read-out: LC50
[17] = test system: TK-10; assay: NCI-60 screen (SRB), renal cancer; details: Homo sapiens; for IC50: TK-10; for CC50: TK-10, read-out: LC50
[18] = test system: SR; assay: NCI-60 screen (SRB), leukemia; details: Homo sapiens; for CC50: read-out: LC50
[19] = test system: MDA-MB-231/ATCC; assay: NCI-60 screen (SRB), breast cancer; details: Homo sapiens; for IC50: MDA-MB-231; for CC50: MDA-MB-231, read-out: LC50
[20] = test system: breast cancer cell lines; assay: NCI-60 screen (SRB), breast cancer panel; format: cell-based; details: Homo sapiens, single dose 10 μM, read-out: GI (growth inhibition), range over panel
[21] = test system: UO-31; assay: NCI-60 screen (SRB), renal cancer; details: for IC50 / CC50: Homo sapiens; for IC50: UO-31; for CC50: UO-31, read-out: LC50
[22] = test system: OVCAR-5; assay: NCI-60 screen (SRB), ovarian cancer; details: Homo sapiens; for IC50: OVCAR-5; for CC50: OVCAR-5, read-out: LC50
[23] = test system: UACC-257; assay: NCI-60 screen (SRB), melanoma; details: Homo sapiens; for IC50: UACC-257; for CC50: UACC-257, read-out: LC50

Q: For `COc1cc(OC)c(S(N)(=O)=O)cc1C(=O)/C=C/c1ccc(C)cc1` [Compound 17c, (E)-2,4-Dimethoxy-5-(3-(p-tolyl)acryloyl)benzenesulfonamide], which IC50 [1] is on record?
A: 2.24 µM

Q: And the CC50 [1]?
A: 44.3 µM

Q: And the lethality ([1]; NCI-H460, single dose 10 μM)?
A: 3.51%

Q: And the IC50 [2]?
A: 2.3 µM

Q: And the CC50 [2]?
A: 35.4 µM

Q: And the IC50 [3]?
A: 2.52 µM

Q: What about the CC50 [3] of the same compound?
A: > 100 µM

Q: And the IC50 [4]?
A: 2.48 µM

Q: What about the CC50 [4] of the same compound?
A: 32.5 µM

Q: What about the IC50 [5] of the same compound?
A: 2.18 µM

Q: And the CC50 [5]?
A: 31.6 µM

Q: And the IC50 [6]?
A: 1.96 µM

Q: What about the CC50 [6] of the same compound?
A: 54.3 µM

Q: And the lethality ([6]; MDA-MB-468, single dose 10 μM)?
A: 36.18%

Q: And the IC50 [7]?
A: 4.14 µM

Q: What about the CC50 [7] of the same compound?
A: 90.8 µM

Q: And the IC50 [8]?
A: 2.56 µM

Q: What about the CC50 [8] of the same compound?
A: 74.8 µM

Q: And the IC50 [9]?
A: 2.48 µM

Q: And the CC50 [9]?
A: 54.1 µM

Q: And the IC50 [10]?
A: 2.27 µM

Q: And the CC50 [10]?
A: 25.4 µM

Q: And the IC50 [11]?
A: 7.81 µM

Q: And the CC50 [11]?
A: 49.4 µM

Q: What about the IC50 [12] of the same compound?
A: 8.55 µM

Q: What about the CC50 [12] of the same compound?
A: 59.5 µM

Q: And the IC50 [13]?
A: 3.43 µM

Q: What about the CC50 [13] of the same compound?
A: 75.8 µM

Q: And the IC50 [14]?
A: 3.89 µM

Q: What about the CC50 [14] of the same compound?
A: 43.2 µM

Q: What about the IC50 [15] of the same compound?
A: 3.33 µM

Q: What about the CC50 [15] of the same compound?
A: 41.7 µM

Q: What about the IC50 [16] of the same compound?
A: 3.25 µM

Q: And the CC50 [16]?
A: 56 µM

Q: And the IC50 [17]?
A: 3.41 µM

Q: And the CC50 [17]?
A: 39.6 µM

Q: What about the IC50 [18] of the same compound?
A: 2.26 µM

Q: What about the CC50 [18] of the same compound?
A: > 100 µM

Q: What about the IC50 [19] of the same compound?
A: 3.41 µM

Q: What about the CC50 [19] of the same compound?
A: 60 µM

Q: And the inhibition at 10 µM [20]?
A: 78.7 to 100%

Q: And the IC50 [21]?
A: 3.46 µM

Q: And the CC50 [21]?
A: 38.1 µM

Q: What about the IC50 [22] of the same compound?
A: 2.57 µM

Q: What about the CC50 [22] of the same compound?
A: 27.2 µM

Q: And the IC50 [23]?
A: 3.86 µM

Q: What about the CC50 [23] of the same compound?
A: 41.9 µM

Q: What does the source list for `COc1cc(OC)c(S(=O)(=O)N(CCCl)CCCl)cc1C(=O)/C=C/c1cc(OC)c(OC)c(OC)c1` [Compound 18e, (E)-N,N-bis(2-Chloroethyl)-2,4-dimethoxy-5-(3-(3,4,5-trimethoxyphenyl)acryloyl)benzenesulfonamide]?
A: IC50 [1]: 1.95 µM; CC50 [1]: > 100 µM; IC50 [2]: > 100 µM; CC50 [2]: > 100 µM; IC50 [3]: 1.6 µM; CC50 [3]: > 100 µM; IC50 [4]: 1.66 µM; CC50 [4]: 8.59 µM; IC50 [5]: 2.92 µM; CC50 [5]: 6.24 µM; IC50 [6]: 3.66 µM; CC50 [6]: 8.84 µM; IC50 [7]: 2.61 µM; CC50 [7]: > 100 µM; IC50 [8]: 3.98 µM; CC50 [8]: > 100 µM; IC50 [9]: 4.36 µM; CC50 [9]: 35.5 µM; IC50 [10]: 7.51 µM; CC50 [10]: > 100 µM; IC50 [11]: 3.64 µM; CC50 [11]: 7.19 µM; IC50 [12]: 7.18 µM; CC50 [12]: > 100 µM; IC50 [13]: 25.1 µM; CC50 [13]: > 100 µM; IC50 [14]: 35.4 µM; CC50 [14]: > 100 µM; lethality ([15]; COLO 205, single dose 10 μM): 89.76%; IC50 [15]: 4.46 µM; CC50 [15]: 8.39 µM; IC50 [16]: 5.45 µM; CC50 [16]: > 100 µM; IC50 [17]: 75 µM; CC50 [17]: > 100 µM; IC50 [18]: 0.99 µM; CC50 [18]: > 100 µM; IC50 [19]: > 100 µM; CC50 [19]: > 100 µM; IC50 [21]: 2.92 µM; CC50 [21]: 5.51 µM; lethality ([21]; UO-31, single dose 10 μM): 93.86%; IC50 [22]: 6.8 µM; CC50 [22]: > 100 µM; IC50 [23]: 3.89 µM; CC50 [23]: 9.14 µM
